Assay results from the NIST ThermoML archive (doi:10.1021/acs.jced.7b01006).

Experiment: xn = mol fraction of the nth substance listed
Details: 100 kPa, Liquid; for electrical conductivity: Alternating current cell with electrodes; for viscosity: Falling or rolling sphere viscometry; for mass density: Vibrating tube method

CCC[n+]1ccn(C)c1C.N#C[S-] [1,2-dimethyl-3-propylimidazolium thiocyanate] + CC#N
Details	electrical conductivity [S/m]	mass density [kg/m3]	viscosity [mPa·s]
288.15 K, x1 = 0.1002	5.17	884.48	7.694
288.15 K, x1 = 0.2002	4.31	948.75	16.21
288.15 K, x1 = 0.2998	3.45	996.05	29.71
288.15 K, x1 = 0.4001	2.35	1028.84	51.08
288.15 K, x1 = 0.4997	1.21	1052.44	81.84
288.15 K, x1 = 0.5998	0.95	1067.26	120.8
288.15 K, x1 = 0.7002	0.685	1077.84	166.5
288.15 K, x1 = 0.7999	0.496	1085.72	215
288.15 K, x1 = 0.8999	0.378	1093.78	264.8
288.15 K, x1 = 1	0.255	1099.81	316.5
293.15 K, x1 = 0.1002	5.5	880.24	5.454
293.15 K, x1 = 0.2002	4.67	945.16	11.9
293.15 K, x1 = 0.2998	3.84	992.52	22.12
293.15 K, x1 = 0.4001	2.64	1025.75	37.64
293.15 K, x1 = 0.4997	1.46	1049.28	58.62
293.15 K, x1 = 0.5998	1.16	1064.44	85.72
293.15 K, x1 = 0.7002	0.883	1075.11	117.1
293.15 K, x1 = 0.7999	0.639	1083.11	150.3
293.15 K, x1 = 0.8999	0.478	1090.97	183.5
293.15 K, x1 = 1	0.361	1096.75	215.8
298.15 K, x1 = 0.1002	5.83	876.09	3.864
298.15 K, x1 = 0.2002	5.05	941.45	8.717
298.15 K, x1 = 0.2998	4.27	988.89	16.33
298.15 K, x1 = 0.4001	2.98	1022.71	27.66
298.15 K, x1 = 0.4997	1.72	1046.39	42.09
298.15 K, x1 = 0.5998	1.4	1061.68	60.63
298.15 K, x1 = 0.7002	1.08	1072.2	82.01
298.15 K, x1 = 0.7999	0.789	1080.57	105
298.15 K, x1 = 0.8999	0.589	1088.08	128.8
298.15 K, x1 = 1	0.459	1093.67	151.9
303.15 K, x1 = 0.1002	6.16	871.55	2.697
303.15 K, x1 = 0.2002	5.43	937.88	6.468
303.15 K, x1 = 0.2998	4.71	985.24	12.26
303.15 K, x1 = 0.4001	3.36	1019.65	20.36
303.15 K, x1 = 0.4997	2.01	1043.41	30.78
303.15 K, x1 = 0.5998	1.67	1058.77	44.13
303.15 K, x1 = 0.7002	1.32	1069.41	59.49
303.15 K, x1 = 0.7999	0.973	1077.79	76.35
303.15 K, x1 = 0.8999	0.72	1085.29	93.37
303.15 K, x1 = 1	0.583	1090.61	110.1
308.15 K, x1 = 0.1002	6.49	867.37	1.998
308.15 K, x1 = 0.2002	5.83	934.26	4.904
308.15 K, x1 = 0.2998	5.16	981.65	9.381
308.15 K, x1 = 0.4001	3.77	1016.47	15.33
308.15 K, x1 = 0.4997	2.35	1040.37	22.87
308.15 K, x1 = 0.5998	1.98	1055.91	32.68
308.15 K, x1 = 0.7002	1.59	1066.65	43.59
308.15 K, x1 = 0.7999	1.18	1075.33	55.98
308.15 K, x1 = 0.8999	0.874	1082.59	69.61
308.15 K, x1 = 1	0.733	1087.57	83.42
313.15 K, x1 = 0.1002	6.81	862.96	1.461
313.15 K, x1 = 0.2002	6.22	930.69	3.715
313.15 K, x1 = 0.2998	5.62	978.11	7.289
313.15 K, x1 = 0.4001	4.18	1013.36	11.81
313.15 K, x1 = 0.4997	2.71	1037.38	17.46
313.15 K, x1 = 0.5998	2.31	1053.06	24.53
313.15 K, x1 = 0.7002	1.88	1063.86	32.94
313.15 K, x1 = 0.7999	1.42	1072.65	42.28
313.15 K, x1 = 0.8999	1.06	1079.86	53.18
313.15 K, x1 = 1	0.905	1084.55	64.78
318.15 K, x1 = 0.1002	7.13	858.59	1.077
318.15 K, x1 = 0.2002	6.61	927.1	2.907
318.15 K, x1 = 0.2998	6.1	974.43	5.635
318.15 K, x1 = 0.4001	4.61	1010.2	9.215
318.15 K, x1 = 0.4997	3.11	1034.36	13.52
318.15 K, x1 = 0.5998	2.67	1050.24	18.99
318.15 K, x1 = 0.7002	2.22	1060.96	25.5
318.15 K, x1 = 0.7999	1.69	1069.97	32.82
318.15 K, x1 = 0.8999	1.26	1077.03	41.2
318.15 K, x1 = 1	1.1	1081.54	50.96
323.15 K, x1 = 0.1002	7.45	854.24	0.775
323.15 K, x1 = 0.2002	7.01	923.56	2.285
323.15 K, x1 = 0.2998	6.58	970.89	4.456
323.15 K, x1 = 0.4001	5.05	1006.99	7.216
323.15 K, x1 = 0.4997	3.52	1031.23	10.53
323.15 K, x1 = 0.5998	3.08	1047.39	14.68
323.15 K, x1 = 0.7002	2.6	1060	19.99
323.15 K, x1 = 0.7999	2	1070	25.88
323.15 K, x1 = 0.8999	1.5	1074.33	33.37
323.15 K, x1 = 1	1.33	1078.54	41.55
